In patent publication US10081635B2, “Substituted N-(pyrrolidine-3-yl)-7H-pyrrolo[2,3-D]pyrimidine-4-amine as janus kinase inhibitor” (YANG JI CHEMICAL CO., LTD., priority 2014, dated 2018):

What was measured:
Format in all cases: biochemical
Human JAK1 = Human JAK1 (Homo sapiens (Human), UniProt P23458); assay: In vitro kinase inhibition test, JAK1 (33P-ATP filter scintillation); settings: compound at 1 uM; read-out: JAK1 kinase-phosphorylation inhibitory level (% inhibition)
Protocol: (§1) 1. In Vitro Kinase Inhibition Test
(§2) Kinases used were human-derived JAK1, JAK2, JAK3, and TYK2 (Millipore, Germany). Each of these kinases was diluted with a suitable buffer solution as described below, and then mixed with reagents.
Tris(hydroxymethyl)aminomethane (TRIS) and ethylenediaminetetraacetic acid (EDTA) were dissolved in distilled water at a concentration of 20 mM and 0.2 mM, respectively, and 100 uL of β-mercaptoethanol, 10 uL of Brij-35™, and 5 mL of glycerol, each per 100 mL of the solution, were added to the solution, thereby preparing a JAK1 dilution buffer solution.
(§3) Each compound was dissolved in a 100% DMSO solution at a 50 uM concentration. This solution was reacted with reagents in wells on a 96-well plate to reach a final concentration of 1 uM. Detailed experimental methods for each kinase are described below.
After reaction for about 40 minutes at room temperature, the reaction was stopped by adding 5 uL of a 3% (v/v) phosphoric acid solution. […] The methanol drying is a drying process using an azeotropic effect, wherein methanol is added into an aqueous solution for drying.
(§4) In Tables 5 and 6, the numbers in the “Example” column, which are identification numbers of the examples, indicate the compounds synthesized in the corresponding examples, the values in the “JAK1”, “JAK2”, “JAK3”, and “TYK2” columns represent kinase-phosphorylation inhibitory levels as a percentage (%) of the compounds synthesized in the corresponding examples at a 1 uM concentration. In Tables 5 and 6, negative values substantially indicate no inhibitory effect.
(§5) The inhibitory levels (% inhibition) represent a percentage of reduction in phosphorylation activity in each test group with respect to the phosphorylation activity of a corresponding kinase in a negative control group lacking any of the compounds synthesized in the examples. % inhibition=[(Scintillation value of Test compound non-treatment group−Scintillation value of Test compound treatment group)/(Scintillation value of Test compound non-treatment group)]×100

Human JAK2 = Human JAK2 (Homo sapiens (Human), UniProt O60674); assay: In vitro kinase inhibition test, JAK2 (33P-ATP filter scintillation); settings: compound at 1 uM; read-out: JAK2 kinase-phosphorylation inhibitory level (% inhibition)
Protocol: as §1, §2
(§6) 3-morpholinopropane-1-sulfonic acid (MOPS) and EDTA were dissolved in distilled water at a concentration of 20 mM and 1 mM, respectively, and 100 uL of β-mercaptoethanol, 10 uL of Brij-35™, 5 mL of glycerol, and 100 mg of bovine serum albumin (BSA), each per 100 mL of the solution, were added to the solution, thereby preparing a JAK2, JAK3, and TYK2 dilution buffer solution.
as §3
(§7) After reaction for about 40 minutes at room temperature, the reaction was stopped by adding 5 uL of a 3% (v/v) phosphoric acid solution.
as §4, §5

Human JAK3 = Human JAK3 (Homo sapiens (Human), UniProt P52333); assay: In vitro kinase inhibition test, JAK3 (33P-ATP filter scintillation); settings: compound at 1 uM; read-out: JAK3 kinase-phosphorylation inhibitory level (% inhibition)
Protocol: as §1, §2, §6, §3, §7, §4, §5

Human TYK2 = Human TYK2 (Homo sapiens (Human), UniProt P29597); assay: In vitro kinase inhibition test, TYK2 (33P-ATP filter scintillation); settings: compound at 1 uM; read-out: TYK2 kinase-phosphorylation inhibitory level (% inhibition)
Protocol: as §1, §2, §6, §3, §7, §4, §5

Human TYK2, sequence (P29597 whole entry): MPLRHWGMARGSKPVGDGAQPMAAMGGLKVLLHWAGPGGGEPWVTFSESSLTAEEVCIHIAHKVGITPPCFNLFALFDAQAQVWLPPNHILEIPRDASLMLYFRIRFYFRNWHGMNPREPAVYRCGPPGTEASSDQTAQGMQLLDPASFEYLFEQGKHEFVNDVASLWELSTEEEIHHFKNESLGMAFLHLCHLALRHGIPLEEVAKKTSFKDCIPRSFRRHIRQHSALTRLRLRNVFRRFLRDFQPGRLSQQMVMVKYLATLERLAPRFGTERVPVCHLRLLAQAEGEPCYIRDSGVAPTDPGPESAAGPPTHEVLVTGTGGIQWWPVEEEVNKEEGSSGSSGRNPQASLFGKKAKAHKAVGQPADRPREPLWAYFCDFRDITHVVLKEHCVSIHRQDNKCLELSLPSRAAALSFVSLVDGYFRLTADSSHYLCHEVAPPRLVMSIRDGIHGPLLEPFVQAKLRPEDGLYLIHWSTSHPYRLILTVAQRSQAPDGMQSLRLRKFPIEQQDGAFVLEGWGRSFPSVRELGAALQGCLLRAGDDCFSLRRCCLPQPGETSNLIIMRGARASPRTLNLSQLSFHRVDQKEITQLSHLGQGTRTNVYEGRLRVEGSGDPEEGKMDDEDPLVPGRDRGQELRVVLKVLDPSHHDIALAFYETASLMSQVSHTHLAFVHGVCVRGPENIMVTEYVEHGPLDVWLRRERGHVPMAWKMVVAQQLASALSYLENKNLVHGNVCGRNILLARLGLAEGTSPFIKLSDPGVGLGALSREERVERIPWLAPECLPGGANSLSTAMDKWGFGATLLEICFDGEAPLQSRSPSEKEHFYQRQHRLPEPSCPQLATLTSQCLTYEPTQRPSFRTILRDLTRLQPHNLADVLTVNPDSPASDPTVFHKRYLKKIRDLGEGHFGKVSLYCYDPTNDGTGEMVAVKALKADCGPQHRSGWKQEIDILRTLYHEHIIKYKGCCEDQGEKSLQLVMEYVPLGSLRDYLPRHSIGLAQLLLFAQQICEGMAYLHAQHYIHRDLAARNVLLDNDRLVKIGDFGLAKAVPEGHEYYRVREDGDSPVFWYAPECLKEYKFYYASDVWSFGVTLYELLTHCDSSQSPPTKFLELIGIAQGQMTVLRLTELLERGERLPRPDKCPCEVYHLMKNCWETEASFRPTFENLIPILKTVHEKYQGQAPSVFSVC
Human JAK3, sequence (P52333 whole entry): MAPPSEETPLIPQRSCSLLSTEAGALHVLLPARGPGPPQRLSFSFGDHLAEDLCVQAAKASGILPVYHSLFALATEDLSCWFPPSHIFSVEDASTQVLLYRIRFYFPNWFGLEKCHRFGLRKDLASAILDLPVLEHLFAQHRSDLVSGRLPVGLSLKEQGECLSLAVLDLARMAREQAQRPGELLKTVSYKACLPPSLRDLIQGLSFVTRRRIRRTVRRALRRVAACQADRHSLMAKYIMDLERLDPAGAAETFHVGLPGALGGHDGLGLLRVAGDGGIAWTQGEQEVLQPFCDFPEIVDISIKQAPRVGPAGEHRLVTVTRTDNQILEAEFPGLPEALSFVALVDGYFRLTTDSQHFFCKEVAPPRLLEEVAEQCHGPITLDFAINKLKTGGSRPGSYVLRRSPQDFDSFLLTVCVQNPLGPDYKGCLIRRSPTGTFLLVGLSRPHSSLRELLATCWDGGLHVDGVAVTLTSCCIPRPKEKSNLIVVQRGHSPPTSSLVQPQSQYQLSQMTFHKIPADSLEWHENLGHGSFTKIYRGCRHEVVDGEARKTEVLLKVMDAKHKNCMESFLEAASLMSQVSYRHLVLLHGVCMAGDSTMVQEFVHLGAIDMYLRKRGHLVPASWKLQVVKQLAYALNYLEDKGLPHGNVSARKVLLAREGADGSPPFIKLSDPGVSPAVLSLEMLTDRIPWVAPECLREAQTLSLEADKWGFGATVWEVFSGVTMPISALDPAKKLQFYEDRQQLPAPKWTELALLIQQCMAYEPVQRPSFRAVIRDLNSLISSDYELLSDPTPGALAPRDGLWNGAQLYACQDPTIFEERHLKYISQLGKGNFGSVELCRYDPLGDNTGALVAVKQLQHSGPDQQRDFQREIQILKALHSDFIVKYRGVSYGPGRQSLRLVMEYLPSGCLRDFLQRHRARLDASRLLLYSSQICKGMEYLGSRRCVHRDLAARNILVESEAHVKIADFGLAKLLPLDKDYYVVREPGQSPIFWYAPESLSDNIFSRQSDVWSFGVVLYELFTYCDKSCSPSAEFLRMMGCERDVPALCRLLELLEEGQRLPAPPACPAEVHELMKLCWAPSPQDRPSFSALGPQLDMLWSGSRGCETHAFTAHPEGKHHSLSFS
Human JAK1, sequence (P23458 whole entry): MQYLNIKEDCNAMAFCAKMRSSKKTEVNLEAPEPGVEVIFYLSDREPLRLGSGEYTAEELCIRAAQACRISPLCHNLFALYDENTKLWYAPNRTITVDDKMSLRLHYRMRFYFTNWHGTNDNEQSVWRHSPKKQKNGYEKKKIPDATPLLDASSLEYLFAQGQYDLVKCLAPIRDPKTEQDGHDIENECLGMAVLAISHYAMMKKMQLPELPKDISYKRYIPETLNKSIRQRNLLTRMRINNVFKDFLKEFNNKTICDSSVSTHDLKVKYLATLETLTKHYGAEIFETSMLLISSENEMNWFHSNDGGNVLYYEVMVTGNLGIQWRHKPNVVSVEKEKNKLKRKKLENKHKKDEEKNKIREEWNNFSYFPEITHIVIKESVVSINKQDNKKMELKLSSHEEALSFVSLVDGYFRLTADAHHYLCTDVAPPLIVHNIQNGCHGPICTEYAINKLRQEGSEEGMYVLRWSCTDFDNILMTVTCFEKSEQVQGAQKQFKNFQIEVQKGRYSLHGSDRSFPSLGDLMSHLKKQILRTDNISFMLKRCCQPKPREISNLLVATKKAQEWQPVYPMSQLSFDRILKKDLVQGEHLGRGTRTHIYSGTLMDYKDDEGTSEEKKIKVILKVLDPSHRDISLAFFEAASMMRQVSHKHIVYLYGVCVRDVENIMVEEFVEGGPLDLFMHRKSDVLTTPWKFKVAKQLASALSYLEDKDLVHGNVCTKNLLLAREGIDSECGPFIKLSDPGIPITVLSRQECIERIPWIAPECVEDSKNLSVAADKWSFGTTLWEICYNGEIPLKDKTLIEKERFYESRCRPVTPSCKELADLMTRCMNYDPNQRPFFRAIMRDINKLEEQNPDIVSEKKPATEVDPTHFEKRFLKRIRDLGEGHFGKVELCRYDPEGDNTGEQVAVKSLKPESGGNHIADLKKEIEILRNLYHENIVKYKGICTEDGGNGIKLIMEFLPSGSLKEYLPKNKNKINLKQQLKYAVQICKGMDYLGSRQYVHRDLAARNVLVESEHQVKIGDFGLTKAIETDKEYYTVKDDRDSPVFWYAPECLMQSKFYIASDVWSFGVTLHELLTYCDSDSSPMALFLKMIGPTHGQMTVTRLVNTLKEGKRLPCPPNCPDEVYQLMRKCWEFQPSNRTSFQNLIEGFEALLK
Human JAK2, sequence (O60674 whole entry): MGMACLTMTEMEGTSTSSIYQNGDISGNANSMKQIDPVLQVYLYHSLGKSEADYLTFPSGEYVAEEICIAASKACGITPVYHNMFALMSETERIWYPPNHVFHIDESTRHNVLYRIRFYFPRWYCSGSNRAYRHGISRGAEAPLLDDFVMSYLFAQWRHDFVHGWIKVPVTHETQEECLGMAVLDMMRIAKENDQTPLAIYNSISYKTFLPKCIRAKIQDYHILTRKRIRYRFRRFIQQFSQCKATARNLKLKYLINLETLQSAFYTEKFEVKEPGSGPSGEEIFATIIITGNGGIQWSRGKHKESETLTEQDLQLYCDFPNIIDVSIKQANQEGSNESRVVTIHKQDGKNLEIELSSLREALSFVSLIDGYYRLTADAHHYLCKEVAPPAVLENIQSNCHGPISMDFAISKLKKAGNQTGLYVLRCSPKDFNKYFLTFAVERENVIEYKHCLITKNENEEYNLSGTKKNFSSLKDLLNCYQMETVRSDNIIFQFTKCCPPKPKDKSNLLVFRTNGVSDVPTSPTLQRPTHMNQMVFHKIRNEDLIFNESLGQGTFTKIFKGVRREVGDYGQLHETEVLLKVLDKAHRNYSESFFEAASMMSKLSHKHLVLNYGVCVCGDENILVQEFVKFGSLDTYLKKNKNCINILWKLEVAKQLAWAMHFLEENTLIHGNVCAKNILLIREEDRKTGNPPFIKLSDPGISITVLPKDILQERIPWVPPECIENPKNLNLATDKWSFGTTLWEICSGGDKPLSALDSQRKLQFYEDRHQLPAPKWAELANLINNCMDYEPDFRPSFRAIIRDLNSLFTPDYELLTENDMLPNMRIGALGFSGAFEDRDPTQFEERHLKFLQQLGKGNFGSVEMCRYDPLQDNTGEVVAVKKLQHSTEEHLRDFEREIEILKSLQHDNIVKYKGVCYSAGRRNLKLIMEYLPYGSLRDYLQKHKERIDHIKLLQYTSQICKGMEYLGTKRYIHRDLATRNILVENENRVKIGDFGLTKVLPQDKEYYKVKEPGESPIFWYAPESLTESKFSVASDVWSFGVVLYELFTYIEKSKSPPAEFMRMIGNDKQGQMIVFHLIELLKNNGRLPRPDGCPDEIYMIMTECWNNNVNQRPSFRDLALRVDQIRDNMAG

SMILES	inhibition at 1 µM (Human JAK1) [%]	inhibition at 1 µM (Human JAK2) [%]	inhibition at 1 µM (Human JAK3) [%]	inhibition at 1 µM (Human TYK2) [%]
CCC(=O)N1CC(N(C)c2ncnc3[nH]ccc23)C2(CC2)C1 (stereo not shown) [Example 52, 1-(7-(methyl(7H-pyrrolo[2,3-d]pyrimidin-4-yl)amino)-5-azaspiro[2.4]heptan-5-yl)propan-1-one]	58	-22	17	20
CN(c1ncnc2[nH]ccc12)C1CN(C(=O)CN=[N+]=[N-])CC12CC2 (stereo not shown) [Example 54, 2-azido-1-(7-(methyl(7H-pyrrolo[2,3-d]pyrimidin-4-yl)amino)-5-azaspiro[2.4]heptan-5-yl)ethan-1-one]	94	60	73	72
CC(=O)NCC(=O)N1CC(N(C)c2ncnc3[nH]ccc23)C2(CC2)C1 (stereo not shown) [Example 56, N-(2-(7-(methyl(7H-pyrrolo[2,3-d]pyrimidin-4-yl)amino)-5-azaspiro[2.4]heptan-5-yl)-2-oxoethyl)acetamide]	9	-37	9	-10
CNC(=O)CC(=O)N1CC(N(C)c2ncnc3[nH]ccc23)C2(CC2)C1 (stereo not shown) [Example 57, N-methyl-3-(7-(methyl(7H-pyrrolo[2,3-d]pyrimidin-4-yl)amino)-5-azaspiro[2.4]heptan-5-yl)-3-oxopropanamide]	55	7	-9	11
CN(c1ncnc2[nH]ccc12)C1CN(C(=O)CCN)CC12CC2 (stereo not shown) [Example 58, 3-amino-1-(7-(methyl(7H-pyrrolo[2,3-d]pyrimidin-4-yl)amino)-5-azaspiro[2.4]heptan-5-yl)propan-1-one]	34	2	-9	-4
CN(c1ncnc2[nH]ccc12)C1CN(C(=O)Cn2ccnc2)CC12CC2 (stereo not shown) [Example 59, 2-(1H-imidazol-1-yl)-1-(7-(methyl(7H-pyrrolo[2,3-d]pyrimidin-4-yl)amino)-5-azaspiro[2.4]heptan-5-yl)ethan-1-one]	72	-17	20	-8
CN(c1ncnc2[nH]ccc12)C1CN(C(=S)CC#N)CC12CC2 (stereo not shown) [Example 60, 3-(7-(methyl(7H-pyrrolo[2,3-d]pyrimidin-4-yl)amino)-5-azaspiro[2.4]heptan-5-yl)-3-thioxopropanenitrile]	96	-3	-14	0
CC(C)COC(=O)N1CC(N(C)c2ncnc3[nH]ccc23)C2(CC2)C1 (stereo not shown) [Example 61, isobutyl 7-(methyl(7H-pyrrolo[2,3-d]pyrimidin-4-yl)amino)-5-azaspiro[2.4]heptane-5-carboxylate]	85	-9	29	22

Continued, values first:

inhibition at 1 µM (Human JAK1) [%]	inhibition at 1 µM (Human JAK2) [%]	inhibition at 1 µM (Human JAK3) [%]	inhibition at 1 µM (Human TYK2) [%]	SMILES
97	70	75	78	CN(c1ncnc2[nH]ccc12)[C@H]1CN(S(=O)(=O)c2ccccc2[N+](=O)[O-])CC12CC2 [Example 43, (R)-N-methyl-N-(5-((2-nitrophenyl)sulfonyl)-5-azaspiro[2.4]heptan-7-yl)-7H-pyrrolo[2,3-d]pyrimidin-4-amine]
100	96	96	98	CN(c1ncnc2[nH]ccc12)[C@H]1CN(S(=O)(=O)c2cccc([N+](=O)[O-])c2)CC12CC2 [Example 44, (R)-N-methyl-N-(5-((3-nitrophenyl)sulfonyl)-5-azaspiro[2.4]heptan-7-yl)-7H-pyrrolo[2,3-d]pyrimidin-4-amine]
100	84	60	88	CN(c1ncnc2[nH]ccc12)[C@H]1CN(S(=O)(=O)c2ccc([N+](=O)[O-])cc2)CC12CC2 [Example 45, (R)-N-methyl-N-(5-((4-nitrophenyl)sulfonyl)-5-azaspiro[2.4]heptan-7-yl)-7H-pyrrolo[2,3-d]pyrimidin-4-amine]
98	81	62	92	Cc1cccc(S(=O)(=O)N2C[C@H](N(C)c3ncnc4[nH]ccc34)C3(CC3)C2)c1 [Example 46, (R)-N-methyl-N-(5-(m-tolylsulfonyl)-5-azaspiro[2.4]heptan-7-yl)-7H-pyrrolo[2,3-d]pyrimidin-4-amine]
99	69	39	71	COc1ccc(S(=O)(=O)N2C[C@H](N(C)c3ncnc4[nH]ccc34)C3(CC3)C2)cc1 [Example 47, (R)-N-(5-((4-methoxyphenyl)sulfonyl)-5-azaspiro[2.4]heptan-7-yl)-N-methyl-7H-pyrrolo[2,3-d]pyrimidin-4-amine]
98	36	28	66	CN(c1ncnc2[nH]ccc12)[C@H]1CN(S(=O)(=O)c2ccc(C(F)(F)F)cc2)CC12CC2 [Example 48, (R)-N-methyl-N-(5-((4-(trifluoromethyl)phenyl)sulfonyl)-5-azaspiro[2.4]heptan-7-yl)-7H-pyrrolo[2,3-d]pyrimidin-4-amine]
98	65	55	75	CN(c1ncnc2[nH]ccc12)[C@H]1CN(S(=O)(=O)c2ccc3ccccc3c2)CC12CC2 [Example 49, (R)-N-methyl-N-(5-(naphthalen-2-ylsulfonyI)-5-azaspiro[2.4]heptan-7-yl)-7H-pyrrolo[2,3-d]pyrimidin-4-amine]
98	56	60	81	CN(c1ncnc2[nH]ccc12)[C@H]1CN(S(=O)(=O)N2CCCCC2)CC12CC2 [Example 50, (R)-N-methyl-N-(5-(piperidin-1-ylsulfonyl)-5-azaspiro[2.4]heptan-7-yl)-7H-pyrrolo[2,3-d]pyrimidin-4-amine]
97	60	49	69	CN(c1ncnc2[nH]ccc12)[C@H]1CN(S(=O)(=O)N2CCOCC2)CC12CC2 [Example 51, (R)-N-methyl-N-(5-(morpholinosulfonyl)-5-azaspiro[2.4]heptan-7-yl)-7H-pyrrolo[2,3-d]pyrimidin-4-amine]
76	-18	3	7	COCC(=O)N1CC(N(C)c2ncnc3[nH]ccc23)C2(CC2)C1 (stereo not shown) [Example 53, 2-methoxy-1-(7-(methyl(7H-pyrrolo[2,3-d]pyrimidin-4-yl)amino)-5-azaspiro[2.4]heptan-5-yl)ethan-1-one]
91	43	7	29	CN(c1ncnc2[nH]ccc12)C1CN(S(=O)(=O)CCN)CC12CC2 (stereo not shown) [Example 63, N-(5-((2-aminoethyl)sulfonyl)-5-azaspiro[2.4]heptan-7-yl)-N-methyl-7H-pyrrolo[2,3-d]pyrimidin-4-amine]
